Test results taken from US11072611B2, “Compounds and pharmaceutical compositions thereof for the treatment of inflammatory disorders” (Galapagos NV, priority 2013, dated 2021).

Each compound was assayed on LPA 18:2 (assay: Rat whole blood (plasma) LPA assay). Conditions: 2 h at 37° C., LPA 18:2 by LC-MS/MS.
Type: biochemical
Experimental: Whole blood is collected from rats or mouse by exsanguinations on sodium heparin tube, then after centrifugation at 3000 rpm for 15 min at 4° C., plasma is stored at −80° C. Compounds are diluted in DMSO in concentration dependent manner then 0.5 μL are dispensed into 96-well plate placed in ice. Plasma is defrosted on ice then 49.5 μL of plasma are added into the well containing 0.5 μL of compound (1% DMSO final). Plates are covered with a lid in polypropylene and incubated at +37° C., 5% CO2, for 2 h under gentle shaking (except controls which are stored at −20° C.).
At the end of the incubation, controls are defrosted in ice and transferred in the incubated plates for LC-MS/MS analysis with a non GLP-validated method. For the analysis, plasma proteins from a 10 μL incubated plates are precipitated with an excess of methanol containing the internal standard, LPA 17:0. After centrifugation, the corresponding supernatant is injected on a C18 column. Analytes are eluted out of the column under isocratic conditions. An API5500 QTRAP mass spectrometer (ABSciex™) is used for the detection of LPA 18:2. No calibration curve is prepared for LPA 18:2, however relative quantities are evaluated based on the peak area.

Structure (SMILES)	IC50 [nM]
CCc1nc2ccc(C3CCN(CC(=O)N4CC(O)C4)CC3)cn2c1N(C)c1nc(-c2ccc(F)cc2)c(CO)s1 [Compound 156, 2-(4-(2-ethyl-3-((4-(4-fluorophenyl)-5-(hydroxymethyl)thiazol-2-yl)(methyl)amino)imidazo[1,2-a]pyridin-6-yl)piperidin-1-yl)-1-(3-hydroxyazetidin-1-yl)ethanone]	> 1000
CCc1nc2ccc(C3CCN(S(C)(=O)=O)CC3)cn2c1N(C)c1nc(-c2ccc(F)cc2)c(C(=O)C(F)(F)F)s1 [Compound 160, 1-(2-((2-ethyl-6-(1-(methylsulfonyl)piperidin-4-yl)imidazo[1,2-a]pyridin-3-yl)(methyl)amino)-4-(4-fluorophenyl)thiazol-5-yl)-2,2,2-trifluoroethanone]	0.01 to 100
CN(C)C(=O)CN1CCC(c2ccc3nc(CCC#N)c(N(C)c4nc(-c5ccc(F)cc5)cs4)n3c2)CC1 [Compound 174, 2-(4-(2-(2-cyanoethyl)-3-((4-(4-fluorophenyl)thiazol-2-yl)(methyl)amino)imidazo[1,2-a]pyridin-6-yl)piperidin-1-yl)-N,N-dimethylacetamide]	0.01 to 100
CN(c1nc(-c2ccc(F)cc2)c(CO)s1)c1c(CCC#N)nc2ccc(C3CCN(S(C)(=O)=O)CC3)cn12 [Compound 175, 3-(3-((4-(4-fluorophenyl)-5-(hydroxymethyl)thiazol-2-yl)(methyl)amino)-6-(1-(methylsulfonyl)piperidin-4-yl)imidazo[1,2-a]pyridin-2-yl)propanenitrile]	0.01 to 100
CCc1nc2ccc(N3CCN(S(C)(=O)=O)CC3)cn2c1N(C)c1nc(-c2ccc(Cl)cc2)ns1 [Compound 188, 3-(4-chlorophenyl)-N-(2-ethyl-6-(4-(methylsulfonyl)piperazin-1-yl)imidazo[1,2-a]pyridin-3-yl)-N-methyl-1,2,4-thiadiazol-5-amine]	> 1000
CCc1nc2ccc(N3CCN(Cc4cnc[nH]4)CC3)cn2c1N(C)c1nc(-c2ccc(F)cc2)cs1 [Compound 192, N-(6-(4-((1H-imidazol-5-yl)methyl)piperazin-1-yl)-2-ethylimidazo[1,2-a]pyridin-3-yl)-4-(4-fluorophenyl)-N-methylthiazol-2-amine]	> 1000

Next, values leading:

IC50 [nM]	Structure (SMILES)
> 1000	CCc1nc2ccc(N3CCN(CCO)CC3)cn2c1N(C)c1nc(-c2ccc(F)cc2)cs1 [Compound 180, 2-(4-(2-ethyl-3-((4-(4-fluorophenyl)thiazol-2-yl)(methyl)amino)imidazo[1,2-a]pyridin-6-yl)piperazin-1-yl)ethanol]
> 1000	CCc1nc2ccc(N3CCS(=O)(=O)CC3)cn2c1N(C)c1nc(-c2ccc(F)cc2)cs1 [Compound 182, 4-(2-ethyl-3-((4-(4-fluorophenyl)thiazol-2-yl)(methyl)amino)imidazo[1,2-a]pyridin-6-yl)-thiomorpholine 1,1-dioxide]
> 1000	CCc1nc2ccc(N3CCN(C(=O)[C@H](C)O)CC3)cn2c1N(C)c1nc(-c2ccc(F)cc2)cs1 [Compound 203, (S)-1-(4-(2-ethyl-3-((4-(4-fluorophenyl)thiazol-2-yl)(methyl)amino)imidazo[1,2-a]pyridin-6-yl)piperazin-1-yl)-2-hydroxypropan-1-one]
> 1000	CCc1nc2ccc(N3CCOC3=O)cn2c1N(C)c1nc(-c2ccc(Cl)cc2)cs1 [Compound 206, 3-(3-((4-(4-chlorophenyl)thiazol-2-yl)(methyl)amino)-2-ethylimidazo[1,2-a]pyridin-6-yl)oxazolidin-2-one]
> 1000	CCc1nc2ccc(N3CCN(CCO)CC3)cn2c1N(C)c1nc(-c2ccc(Cl)cc2)cs1 [Compound 212, 2-(4-(3-((4-(4-chlorophenyl)thiazol-2-yl)(methyl)amino)-2-ethylimidazo[1,2-a]pyridin-6-yl)piperazin-1-yl)ethanol]
> 1000	CCc1nc2ccc(N3CCS(=O)(=O)CC3)cn2c1N(C)c1nc(-c2ccc(Cl)cc2)cs1 [Compound 213, 4-(2-ethyl-3-((4-(4-chlorophenyl)thiazol-2-yl)(methyl)amino)imidazo[1,2-a]pyridin-6-yl)-thiomorpholine-1,1-dioxide]
